# From US9598448B2, “Osmium (II) arene imino anti-cancer complexes” (University of Warwick, priority 2010, dated 2017)
# “Also recorded” adds a separate entry of the source. Read-outs that look alike come from different tables or passages of the source.
# Columns and labels:
# [1] = system: human ovarian A2780 cancer cells; test: SRB growth inhibition assay, A2780; type: cell-based
# Experimental: The concentrations of the osmium complexes that inhibit 50% of the proliferation of human ovarian A2780 cancer cells were determined by sulforhodamine B test. A2780 cells were seeded in 96-well plate (Falcon) at 5000 cells/well, after the incubation for 48 h, The complexes were solubilised in DMSO (Sigma) to provide 10 mM stocks. The stocks were serially diluted by cell culture media to give concentrations four-fold than the final concentrations for the assay. The dilutions of complexes in cell culture media were added to the 96-well plate with cells in triplicates to achieve the final concentrations. The final DMSO concentration in each well was no more than 1% (v/v). The complexes were removed after 24 h. The cells were washed with Phosphate Buffered Saline once and cell culture media was added 150 μL/well. The cells were recovered for 72 h. The surviving cells were fixed by adding 150 μL/well of 50% (w/v) trichloroacetic acid and incubated for 1 h at 277 K (277 K). The plates were washed with tap water three times and dried under a flow of warm air, 0.4% sulforhodamine B (Sigma) solution 100 μL/well followed by washing with 1% acetic acid five times and dried under a flow of warm air. The dye was dissolved in 10 mM Tris buffer […] The absorbance of each well was obtained by the Multiskan Ascent plate reader (Labsystems) at 540 nm. The absorbance value of SRB in each well is directly proportional to the cell number. Then the absorbance can be plotted against concentration and the IC50 determined by using Origin software.
# The cytotoxicity studies were carried out as described previously above.
# [2] = system: A549 non-small cell lung; test: MTT growth inhibition assay, A549; type: cell-based, human; settings: 96 h
# Experimental: (§1) Tumor cell growth inhibition was assessed using the MTT assay.^13 2×10^3 cells were inoculated into a 96-well plate and incubated overnight at 37° C. in a humidified atmosphere containing 5% CO2. Complexes were solubilised in DMSO as above, and then diluted in complete cell culture medium to give a broad range of concentrations. Cisplatin was included in the screen as a comparator. Medium was removed from each well and replaced with complex or control solutions, and the plates then incubated for a further 96 hours. After 96 h culture medium was removed and 200 μL of 0.5 mg mL^−1 MTT solution (Sigma) in complete medium added to each well. Following further 4 h incubation, the solution was removed from each well and 150 μL of DMSO (Sigma) added to solubilise the formazan crystals resulting from MTT conversion. Absorbance values for the resulting solutions were read at 550 nm on a microplate reader and cell survival calculated as the absorbance of treated cells divided by the control. Results were expressed in terms of IC50 values (i.e. concentration of compound required to kill 50% of cells) and all experiments were performed in triplicate.
# (§2) The following human cancer cell lines were cultured in RPMI 1640 cell culture medium supplemented with 1 mM sodium pyruvate, 2 mM L-glutamine and 10% fetal bovine serum (all from Sigma): A549 non-small cell lung, HCT-116 colon, MCF-7 breast, PC-3 prostate (all from LGC Promochem, Teddington, UK), A2780/cis ovarian (cisplatin-resistant) and RT-112 bladder (both from ECACC, Salisbury, UK).
# [3] = system: PC-3 prostate; test: MTT growth inhibition assay, PC-3; type: cell-based, human; settings: 96 h
# Experimental: as §1, §2
# [4] = system: A2780/cis ovarian (cisplatin-resistant); test: MTT growth inhibition assay, A2780/cis; type: cell-based, human; settings: 96 h
# Experimental: as §1, §2
# [5] = system: HCT-116 colon; test: MTT growth inhibition assay, HCT-116; type: cell-based, human; settings: 96 h
# Experimental: as §1, §2
# [6] = system: MCF-7 breast; test: MTT growth inhibition assay, MCF-7; type: cell-based, human; settings: 96 h
# Experimental: as §1, §2
# [7] = pKa of hydroxyl group; type: physicochemical
# [8] = system: RT-112 bladder; test: MTT growth inhibition assay, RT-112; type: cell-based, human; settings: for IC50: MTT, 96 h
# Experimental: as §1, §2
# [9] = system: Balb/c immunodeficient nude mice bearing HCT-116 tumours; test: Evaluation of in vivo toxicity in nude mouse HCT-116 xenograft model; settings: i.v. day 0, doses from 2 up to 40 mg kg^−1, monitored 15 days
# Experimental: Female Balb/c immunodeficient nude mice (Harlan, Loughborough, UK) aged 6-12 weeks were used. Mice received Harlan 2018 diet (Harlan) and water ad libitum. Mice were kept in cages in an air-conditioned room with regular alternating cycles of light and darkness. All animal procedures were carried out under a project license issued by the UK Home Office and UKCCCR guidelines (Workman P, Twentyman P, Balkwill F et al: United Kingdom Co-ordinating Committee on Cancer Research (UKCCCR) Guidelines for the Welfare of Animals in Experimental Neoplasia (Second Edition). Br J Cancer 77: 1-10, 1998) were followed throughout.
# HCT-116 was used in the study. Tumours were excised from a donor animal, placed in sterile physiological saline containing antibiotics and cut into small fragments of approximately 2 mm^3. Under brief general inhalation anaesthesia, fragments were implanted in the […] abdominal flank of each mouse using a trocar. Once the tumours could accurately be measured using callipers (mean tumour volume of approximately 50 mm^3), treatment commenced. Complexes 3 and 6 were solubilised in 10% DMSO; 5% Tween-80; 85% saline and were administered intravenously to groups of 2 mice on day 0. Animals were weighed frequently and monitored for any deleterious effects over a period of 15 days.
# [10] = system: human A549 lung cancer cells; settings: cited from earlier work
# [11] = Stability and hydrolysis (1H NMR, MS, UV-vis); type: physicochemical; settings: 310 K, 24 h, 95% deuterated phosphate buffer (10 mM)/5% MeOD-d4
# [12] = system: A2780 cells; test: N-acetyl-L-cysteine (NAC) treatment, cell viability by SRB; type: cell-based, human; settings: pretreated with 5 mM NAC for 2 h; 1.2-1.8× IC50 (2.5× for cisplatin)
# Experimental: Then NAC and osmium complexes were removed at the same time and washed with PBS once, the cells were incubate for 72 h for recovery. The cell viability was tested by SRB test same as used for IC50 test.
# [13] = system: HCT-116 colon adenocarcinoma s.c. xenograft model; test: In vivo efficacy in HCT-116 s.c. xenograft model; settings: 8.0 mg kg^−1
# [14] = system: human tumor 60-cell line panel; settings: Data from NCI/DTP screening: October 2009, 48 h incubation; cited from earlier work
# [15] = SRB, 24 h exposure, 72 h recovery, read-out: IC50 to A2780 cell line
# [16] = SRB, 24 h exposure, 72 h recovery, read-out: IC50 values for iminopyridine complexes against A2780 ovarian cancer cells
# [17] = A2780 human ovarian cancer cells, read-out: IC50 values against A2780
# [18] = SRB, 24 h exposure, 72 h recovery, read-out: IC50 values for azopyridine complexes against A2780 ovarian cancer cells
compound,measurement,setting,value
[Os(η^6-bip)(2-Cl-Azpy)I]PF6 [FY078],IC50,[1]; [15],1000 nM
[(η^6-p-cym)Os(pp)Cl]PF6 [Complex 15],IC50,[1]; [16],26200 nM
[Os(η^6-p-cym)(2-I-Azpy)I]PF6 [FY067],IC50,[1]; [15],2400 nM
[Os(η^6-bip)(pp-OH)Cl]PF6 [FY150],IC50,[1]; [15],2400 nM
[(η^6-p-cym)Os(pp-NMe2)I]PF6 [Complex 13],IC50,[1]; [16],400 nM
[Os(η^6-bip)(2-I-Azpy)I]PF6 [FY070],IC50,[1]; [15],220 nM
[(η^6-bip)Os(Azpy-O)I].0.5H2O [3*],IC50,[2],400 nM
same,IC50,[3],< 300 nM
same,IC50,[4],< 300 nM
same,IC50,[5],< 300 nM
same,IC50,[6],250 nM
same,pKa of the hydroxyl group,[7],less than 7
same,IC50,[1]; [17],140 nM
same,IC50,[8],400 nM
same,"difference in potency to cisplatin, RT-112",[8]; RT-112,3 fold
same,toxicity / deleterious effects,[9],no evident toxicity; also recorded: negligible deleterious effects
[Os(η^6-bip)(2-Br-Azpy)I]PF6 [FY061],IC50,[1]; [15],590 nM
[(η^6-p-cym)Os(Azpy-NMe2)Cl]PF6 [Complex 12],IC50,[2],5200 nM
same,IC50,[3],6800 nM
same,cytotoxicity against the A549 cancer cell line,[10],did not show significant cytotoxicity
same,activity towards human A549 lung cancer cells,[10]; up to concentrations of 100 μM,No activity
same,IC50,[4],1800 nM
same,IC50,[5],900 nM
same,IC50,[6],1100 nM
same,stability and hydrolysis in aqueous solution,[11],remained stable and did not hydrolyze
same,IC50,[1]; [18],1800 nM
same,IC50,[8],2200 nM
same,cell growth restored after NAC pretreatment,[12],only a small effect on restoring growth
[(η^6-bip)Os(pp)I]PF6 [Complex 14],IC50,[1]; [16],18600 nM
"Cc1ccc(C(C)C)cc1.F[P-](F)(F)(F)(F)F.Oc1ccc(N=Nc2ccccn2)cc1.[I-].[Os+2] [Complex 4, [(η^6-p-cym)Os(Azpy-OH)I]PF6]",IC50,[1]; [18],300 nM
[Os(η^6-bip)(3-Cl-Azpy)I]PF6 [FY052],IC50,[1]; [15],22000 nM
[Os(η^6-p-cym)(OH-Azpy-NO2)Cl]PF6 [FY033],IC50,[1]; [15],300 nM
"N.N.[Cl][Pt][Cl] [Cisplatin, reference compound]",IC50,[2],4100 nM
same,Maximum % weight loss,[13],8%
same,Median tumour doubling time,[13],6.4 days
same,day of maximum % weight loss,[13],6 days
same,IC50,[3],21500 nM
same,IC50,[4],4000 nM
same,IC50,[5],2600 nM
same,IC50,[6],3000 nM
same,GI50,[14],10300 nM
same,TGI,[14],50700 nM
same,IC50,[1]; [18],2000 nM
same,IC50,[1]; [16],2000 nM
same,IC50,[8],1400 nM
[Os(η^6-p-cym)(1-Cl-Azpy)I]PF6 [FY112],IC50,[1]; [15],9000 nM
[(η^6-p-cym)Os(Azpy)Cl]PF6 [Complex 8],stability and hydrolysis in aqueous solution,[11],disappearance of the peaks corresponding to the azopyridine ligand
same,IC50,[1]; [17],> 50000 nM
same,IC50,[1]; [18],> 50000 nM
[Os(η^6-p-cym)(abpy))I]PF6 [FY043],IC50,[1]; [15],10800 nM
